In the assay the target is T1, NAD-dependent protein deacetylase sirtuin-2 (Homo sapiens, UniProt Q8IXJ6).
T1 sequence (Q8IXJ6 whole entry): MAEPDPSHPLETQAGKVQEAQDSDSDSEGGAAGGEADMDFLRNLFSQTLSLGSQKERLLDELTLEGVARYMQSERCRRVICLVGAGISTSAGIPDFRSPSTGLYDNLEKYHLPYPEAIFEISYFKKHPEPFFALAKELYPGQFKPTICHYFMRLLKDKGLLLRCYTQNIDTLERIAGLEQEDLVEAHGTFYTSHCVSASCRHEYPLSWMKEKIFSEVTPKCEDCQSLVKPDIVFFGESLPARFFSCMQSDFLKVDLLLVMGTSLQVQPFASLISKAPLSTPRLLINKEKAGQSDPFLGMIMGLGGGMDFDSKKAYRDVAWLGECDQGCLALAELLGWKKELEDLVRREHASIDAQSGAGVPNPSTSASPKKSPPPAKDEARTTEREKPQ
In words: Inhibition of human recombinant Sirt2 using ZMAL as substrate after 4 hrs by fluorescent deacetylase assay.

Data on 14 compounds can be found in ChEMBL document CHEMBL3217470, “Binding free energy calculations and biological testing of novel thiobarbiturates as inhibitors of the human NAD+dependent histone deacetylase Sirt2” (Medchemcomm, 2012).

As to `COc1ccc(CC2C(=O)NC(=S)NC2=O)cc1OCc1ccccc1`, the IC50 (read-out: IC50) is 5.8 µM. Take `COC(=O)c1ccc(-c2ccc(C=C3C(=O)NC(=S)NC3=O)o2)cc1`: the IC50 (read-out: IC50) came out at 5.7 µM. Same read-out and setting: to `O=C1NC(=S)NC(=O)C1=Cc1ccc(-c2ccc(Cl)c(Cl)c2)o1` belongs 1.5 µM; to `CCOc1ccc(C=C2C(=O)NC(=S)NC2=O)cc1CCc1ccccc1`, 4.9 µM. On to `O=C1NC(=S)NC(=O)C1=Cc1ccc(OCc2cccc3ccccc23)cc1`, for which the IC50 (read-out: IC50) amounted to 2.6 µM. With `O=C1NC(=S)NC(=O)C1=Cc1ccc(Sc2ccccc2)o1`, for the setting “read-out: IC50”, the IC50 turned out to be 3.5 µM. Regarding `CC(=O)c1ccc(-c2ccc(C=C3C(=O)NC(=S)NC3=O)o2)cc1`, where the note is “read-out: IC50”, the IC50 worked out at 5.5 µM. With `O=C1NC(=S)NC(=O)C1=Cc1cc(OCc2ccc(Br)cc2)ccc1Cl`, the IC50 (read-out: IC50) was 1.8 µM. On to `C=CCN1C(=O)/C(=C/c2ccc(-c3cccc(Cl)c3Cl)o2)C(=O)NC1=S`, for which, for the setting “read-out: IC50”, the IC50 stood at 2.8 µM. In the case of `O=C1NC(=S)NC(=O)C1=Cc1ccc(-c2ccc(C(=O)OCc3cccc(Cl)c3)cc2)o1`, the IC50 is, setting by setting: (read-out: IC50) 2.2 µM; (read-out: pIC50 (converted)) 6.46 µM. Turning to `O=C1NC(=S)NC(=O)C1=Cc1cn(-c2ccccc2)nc1-c1ccc(Cl)cc1`, for the setting “read-out: IC50”, the IC50 stood at 3.8 µM. For the compound `O=C1NC(=S)NC(=O)C1=Cc1ccc(OCc2ccccc2)c(OCc2ccccc2)c1`, the IC50 (read-out: IC50) was found to be 3.9 µM. As to `O=C1NC(=S)NC(=O)C1=Cc1ccc(-c2ccc(Cl)cc2)o1`, the IC50 (read-out: IC50) came out at 6.5 µM and the IC50 (read-out: pIC50 (converted)) is 2.19 µM.

Turning to `CC(C)Oc1ccc(C=C2C(=O)NC(=S)NC2=O)cc1`, the IC50 (read-out: IC50) stood at 5.8 µM.
